From US20150125452A1, “COMBINATION TREATMENTS COMPRISING C-MET ANTAGONISTS AND B-RAF ANTAGONISTS” (GENENTECH, INC., priority 2011, published 2015) come the findings set out here.

In test [1] the test system is kinase-addicted cancer cell lines. The test can be described thus: RTK ligand matrix screen, Syto 60 cell viability. The format is cell-based, Human. Particulars: for effect of RTK ligand on conferring drug resistance to kinase inhibitors: 50 ng/mL RTK ligand, 72 h, 41 cell lines. How it is done:
(§1) Cell viability was assessed using the nucleic acid stain Syto 60 (Invitrogen). Cells (3000-5000 per well) were seeded into 96 well plates and allowed to adhere overnight. The next day, cells were treated with (or without) 50 ng/mL RTK ligand and concomitantly exposed to an increasing concentration range of the relevant kinase inhibitor. Following 72 hours drug exposure, cells were fixed in 4% formaldehyde, stained with Syto 60 and cell number was assessed using an Odyssey scanner (Li-Cor). Cell viability was calculated by dividing the fluorescence obtained from the drug-treated cells by the fluorescence obtained from the control (no drug) treated cells.
Cell lines. Human cancer cell lines were obtained and tested for sensitivity using an automated platform as previously described (Johannessen, C. M. et al. COT drives resistance to RAF inhibition through MAP kinase pathway reactivation. Nature 468, 968-972, doi:10.1038/nature09627 (2010)). Cell lines were maintained at 37° C. in a humidified atmosphere at 5% CO2 and grown in RPMI 1640 or DMEM/F12 growth media (GIBCO) supplemented with 10% fetal bovine serum (GIBCO), 50 units/mL penicillin and 50 μg/mL streptomycin (GIBCO).
Using 41 different human tumor-derived cell lines with previously defined kinase dependency^7-9, we undertook a “matrix analysis” to examine the effects of 6 different RTK ligands (HGF, EGF, FGF, PDGF, NRG1, IGF)—known to be widely expressed in cancer cells and tumor stroma^10—on drug response. Specifically, we quantified the effect of exposing these cancer cell lines (e.g., AU565 (HER2 amp)) to each ligand on the IC50 for a kinase inhibitor (e.g., lapatinib) that otherwise potently suppresses their growth within 72 hours (FIG. 1A). Nearly all of the kinase-dependent cancer cell lines tested, which included cells derived from multiple tissue types and with distinct kinase dependencies (EGFR, HER2, BRAF, MET, ALK, PDGFR, and FGFR), could be rescued from drug-induced growth inhibition by one or more RTK ligands, highlighting the potentially broad contribution of these ligands to the response to selective kinase inhibitors in kinase-addicted tumor cells (FIG. 1B).

The test system of test [2] is AKT and ERK phosphorylation. Briefly: Immunoblots of survival pathway re-activation. The format is cell-based, Human. The settings on record: for PI3K/MAPK pathway re-activation by RTK ligand in presence of kinase inhibitor: 50 ng/mL ligand, kinase inhibitor 1 μM, 2 h. How it is done:
FIGS. 2A-2C: pro-survival pathway re-activation correlated with RTK ligand rescue. FIG. 2A, Immunoblots showing the effect of acute RTK ligand treatment (50 ng/mL) on AKT and ERK phosphorylation following kinase inhibition (1 μM, 2 h). RTK ligand rescue is indicated, grey squares indicates complete rescue and black squares indicates partial rescue as determined by the initial screen (FIG. 1B). […] Cells were co-treated with 50 ng/mL RTK ligand in the presence of the appropriate secondary kinase inhibitor (0.5 μM) as indicated. […] Error bars represent mean+/−s.e.m. FIG. 2C, Immunoblots showing the effect of acute kinase inhibition (1 μM) in the presence and absence of RTK ligands (50 ng/mL, 2 h) on AKT and ERK phosphorylation. Cells were co-treated with secondary kinase inhibitor (0.5 μM) as appropriate.
Cell lysates were harvested using Nonidet-P40 lysis buffer, supplemented with Halt protease and phosphatase inhibitor cocktail (Thermo Scientific) and immunodetection of proteins was carried out using standard protocols. The phospho-HER2 (Y1248; #2247), HER2 (#2242), phospho-HER3 (Y1289; #4791), phospho-MET (Y1234/5; #3126), PDGFRα (#5241), phospho-FRS2α (Y196; #3864), IGF-1Rβ (#3027), phospho-ALK (Y1604; #3341), AKT (#9272), phospho-ERK (T202/Y204; #9101), ERK (#9102), GAPDH (#2118) and β-Tubulin (#2146) antibodies were purchased from Cell Signaling Technologies. Antibodies to HER3 (SC-285), MET (SC-10), phospho-PDGFRα (SC-12911), FRS2α (SC-8318), FGFR1 (SC-7945), FGFR2 (SC-122), FGFR3 (SC-13121) and ALK (SC-25447) were purchased from Santa Cruz Biotechnologies. Phospho-AKT (S473; #44-621G) antibody was purchased from Invitrogen. Phospho-EGFR (Y1068; ab5644) antibody was purchased from Abeam. EGFR (#610017) antibody was purchased from BD Biosciences. PARP (#14-6666-92) antibody was purchased from eBioscience. Densitometry was carried out using ImageJ software.
Background: In western blotting, separated proteins are transferred to a membrane and probed.

Test [3] relates to kinase-addicted cancer cell lines. Briefly: RTK ligand matrix screen, Syto 60 cell viability. Format: cell-based, Human. The settings on record: six kinase addicted cell lines, six RTK ligands.
The subject of the next test is 928MEL xenografts. The test can be described thus: Xenograft tumour growth assay. The settings on record: for tumor regression, B-raf antagonist plus c-met antagonist versus PLX[…] alone: PLX[…]-treated xenografts. The format is in vivo, CRL C.B-17 SCID.bg mice. How it is done: […] Differences between the 2 groups were determined using two-way ANOVA (*=0.0008).
All procedures conformed to the guidelines and principles set by the Institutional Animal care and Use Committee of Genentech and were carried out in an AAALAC (Association for the Assessment and Accreditation of Laboratory Animal care) accredited facility. […] Tumor volumes were calculated using the formula (Lx(W×W))/2. A partial response (PR) in this example was defined as a reduction in tumour volume greater than 50% but less than 100%. A complete response (CR) in this example was defined as 100% reduction in tumour volume. […]

Test [4] deals with AU565 HER2 amplified breast cancer cells. The test can be described thus: Syto 60 viability and long-term staining with lapatinib and ligands. The format is cell-based, Human. The settings on record: lapatinib 1 μM, 10 ng/mL NRG1, FGF or combination, 72 h. How it is done:
FIGS. 3A-3G: HGF promoted lapatinib resistance in HER2 amplified cell lines. […] HGF rescue is indicated, black squares indicates partial rescue as determined by the initial screen (FIG. 1B). […] Cells were treated every three days for the indicated times. […] FIG. 3D, Immunoblots showing the re-activation of pAKT and pERK in two MET positive (AU565, HCC1954) and one MET negative (BT474) HER2 amplified cell lines. […] FIG. 3E, Representative slides showing MET expression in HER2 positive (3+) breast cancer tissues. FIG. 3F, selection of higher MET expressing AU565 cells following 3× treatments with lapatinib (1 μM) and HGF (50 ng/mL). FIG. 3G. […] Cells were treated twice weekly for the indicated times.
AU565 sells were co-treated with lapatinib (1 μM) in combination with 10 ng/mL NRG1 or FGF. […] Cells were treated with the appropriate kinase inhibitors in the presence of HGF (50 ng/mL). Cells were then treated with either 100 nM PI3K inhibitor (BEZ235) or MAPK inhibitor (AZD6244). Error bars represent mean+/−s.e.m.
as §1

In test [5] the test system is HCC1954 HER2 amplified breast cancer cells. The settings on record: lapatinib 5 μM, crizotinib 1 μM, twice weekly. How it is done: Cells were treated twice weekly for the indicated times.
The effects of MET kinase inhibition to delay lapatinib resistance in HCC 1954 cells were examined.

Test [6] deals with BRAF mutant melanoma cell lines. Briefly: Syto 60 cell viability, HGF rescue from PLX[…]. Format: cell-based, Human. How it is done:
Cells were treated twice weekly for the indicated times. […] Error bars represent mean+/−s.e.m.
Cell viability was assessed using the nucleic acid stain Syto 60 (Invitrogen). Cells (3000-5000 per well) were seeded into 96 well plates and allowed to adhere overnight. The next day, cells were treated with (or without) 50 ng/mL RTK ligand and concomitantly exposed to an increasing concentration range of the relevant kinase inhibitor. […] Cell viability was calculated by dividing the fluorescence obtained from the drug-treated cells by the fluorescence obtained from the control (no drug) treated cells.

Test [7] has as its system HER2-amplified breast cancer cell lines. The test can be described thus: Syto 60 cell viability, ligand rescue from lapatinib. Format: cell-based, Human. The settings on record: 50 ng/mL ligand, 72 h. How it is done: as §1
The ability of HGF to rescue 3 of 9 tested HER2-amplified breast cancer cell lines from growth inhibition by the HER2 kinase inhibitor lapatinib was also unexpected (FIG. 3A). These 3 cell lines all express MET, and expression was well correlated with the ability of HGF to attenuate lapatinib response (FIG. 3B).

For test [8], the system named is BRAF mutant metastatic melanoma patients. Briefly: BRIM2 clinical trial, outcome by plasma HGF level. Format: in vivo, human. Particulars: PLX[…]-treated patients.
Method: Plasma was obtained from metastatic melanoma patients pre-dose cycle one and the concentration of HGF in patient-derived plasma were quantitatively measured using a sandwich enzyme-linked immunosorbent assay (ELISA). Wells of NUNC MaxiSorp microtiter plates were coated (ON, 4° C.) with 0.5 μg/mL of affinity-purified Goat antihuman hepatocyte growth factor polyclonal antibody in 100 μL of coating buffer (0.05M sodium carbonate buffer, pH 9.6) and were then blocked with 0.5% bovine serum albumin (BSA) in assay buffer (PBS, 0.5% BSA, 0.05% P 20, 0.25% CHAPS, 0.35M NaCl, 5 mM EDTA, 10 ppm Proclin300, pH 7.4) for 1 hour at room temperature. Diluted human hepatocyte growth factor controls and plasma samples (100 μL) in assay buffer were loaded in duplicates and incubated for 2 hours at room temperature, followed by the addition of 100 μL of affinity-purified goat antihuman hepatocyte growth factor biotin (150 ng/mL) for an additional 1 hour at room temperature. Avidin-conjugated horseradish peroxidase (40 ng/mL) in PBS, 0.5% BSA, 0.05% P 20, 10 ppm Proclin300, pH 7.4, was added (1 hour, room temperature), and the reaction was visualized by the addition of 100 μL of chromogenic substrate (TMB) for 15 minutes. The reaction was stopped with 1M phosphoric acid and absorbance at 450 nm was measured with reduction at 630 nm with an ELISA plate reader. Plates were washed 3 times with washing buffer (0.05% Tween 20/PBS) after each step. As a reference for quantification, a standard curve was established by a serial dilution of human hepatocyte growth factor (CritRS CR67; 2000-15.625 pg/mL).
HGF levels were log-transformed, and the Kolmogorov-Smirnoff test was used to test the resulting distribution for departure from the Gaussian distribution. The Cox-proportional model was used to test the log-transformed HGF levels for association with the progression free survival (PFS) and overall survival (OS). Association between the response and HGF levels was tested using the Wilcoxon rank-sum test. Kaplan-Meier (KM) curves were used to show display the relationship between the HGF levels and the time-to-event outcomes (PFS and OS). […] The cox-proportional model of the outcome as the function of the continuous HGF level was used to calculate the hazard ratio and corresponding p-value.
[9] abbreviates: 10 mice per group, 4 weeks, PR = tumour volume reduction >50% but <100%.

“IGF: recombinant human IGF-1 purchased from Peprotech”: the “effect of RTK ligand on conferring drug resistance to kinase inhibitors” value (“effect of RTK ligand … to kinase inhibitors” for short) in test [1] was “relatively little effect”. Also, the “PI3K/MAPK pathway re-activation by RTK ligand in presence of kinase inhibitor” value in test [2] was “only re-activated the PI3K”. Besides, in [2] (COLO-201 and BT474 cell lines, IGF), the “downstream signalling after receptor activation in non-rescued cells” value is reported as “downstream signalling via PI3K or MAPK was not observed”.
With `N.N.[Cl][Pt][Cl]` [cisplatin], the “RTK ligand rescue from growth suppressive effects of cisplatin” value in [3] is recorded as “none of the tested RTK ligands could rescue cells”.
For `CCN1CC[C@@H](Nc2n[nH]c3nccc(Oc4ccc(NC(=O)c5ccnn(-c6ccc(F)cc6)c5=O)cc4F)c23)[C@@H](F)C1` [GDC-0712, N-(4-(3-((3S,4R)-1-ethyl-3-fluoropiperidine-4-ylamino)-1H-pyrazolo[3,4-b]pyridin-4-yloxy)-3-fluorophenyl)-2-(4-fluorophenyl)-3-oxo-2,3-dihydropyridazine-4-carboxamide], the “partial responses, PLX[…] with MET kinase inhibition” value in the test on 928MEL xenografts (setting [9]) came to 8. Moreover, the “tumor regression, B-raf antagonist plus c-met antagonist versus PLX[…] alone” value in the test on 928MEL xenografts is listed as “greater effect on tumor regression”.
With “FGF: recombinant human FGF-basic purchased from Peprotech”, the “effect of RTK ligand … to kinase inhibitors” value in [1] is listed as “most broadly active ligands”. Further, in [2], the “PI3K/MAPK pathway re-activation by RTK ligand in presence of kinase inhibitor” value was “only re-activated the MAPK pathway”. The “rescue from kinase inhibition by activating both PI3K and MAPK pathways” value in test [4] is recorded as “additive”.
As for `Cn1c(=O)n(-c2ccc(C(C)(C)C#N)cc2)c2c3cc(-c4cnc5ccccc5c4)ccc3ncc21` [BEZ235, reference compound], the “reversal of HGF-induced rescue by PI3K versus MAPK pathway inhibition” value in test [1] (100 nM BEZ235 or AZD6244, HGF 50 ng/mL, with kinase inhibitor) is reported as “more potent at reversing ligand—induced rescue”.
On to `C[C@@H](Oc1cc(-c2cnn(C3CCNCC3)c2)cnc1N)c1c(Cl)ccc(F)c1Cl` [crizotinib, 3-[(1R)-1-(2,6-dichloro-3-fluorophenyl)ethoxy]-5-(1-piperidin-4-ylpyrazol-4-yl)pyridin-2-amine], for which the “emergence of lapatinib resistance under MET kinase inhibition” value in test [5] is recorded as “delayed the emergence of lapatinib resistance”. For the same compound, the “reversal of HGF survival rescue by MET inhibition” value in [6] (PLX[…], HGF 50 ng/mL, crizotinib 0.5 μM, 72 h) is given as “survival rescue by HGF was reversed”.
Regarding “NRG1: HER3 ligand, rhNRG1-β1 purchased from R and D Systems”, the “effect of RTK ligand … to kinase inhibitors” value in test [1] is recorded as “most broadly active ligands”. Also, in [1] (H2228 and H358 cells with HGF, COLO-201 cells with NRG1), the “rescue despite activation of receptor and a downstream survival effector” value was “not sufficient to rescue cells from kinase inhibition”. In test [7], the “number of HER2-amplified breast cancer cell lines rescued from lapatinib” value is on record as 8 of the 9. The “PI3K/MAPK pathway re-activation by RTK ligand in presence of kinase inhibitor” value in [2] is on record as “only re-activated the PI3K”. For the same compound, the “rescue from kinase inhibition by activating both PI3K and MAPK pathways” value in test [4] is listed as “additive”.
As for “PDGF: recombinant human PDGF-AB purchased from Peprotech”, the “effect of RTK ligand … to kinase inhibitors” value in test [1] is recorded as “relatively little effect”.
Regarding PLX4032, the “partial responses, PLX[…] alone” value with 928MEL xenografts (setting [9]) was 1. Besides, the “tumor regression, B-raf antagonist plus c-met antagonist versus PLX[…] alone” value in the test on 928MEL xenografts is reported as “statistically significant improvement in tumor regression”. The “correlation of MET expression with PLX[…] sensitivity” value in test [6] (HGF-rescuable cell lines) is recorded as “inversely correlated”. In addition, in test [8] (Cox-proportional model, p<0.001), the “hazard ratio, overall survival with increased HGF” value is 1.8. Further, the “hazard ratio, progression free survival with increased HGF” value in test [8] (Cox-proportional model, p<0.005) is listed as 1.42. Moreover, the “overall survival, HGF above median versus below median” value in [8] (median plasma HGF 334 pg/mL, p<0.001) is on record as “substantially reduced”. Besides, the “progression-free survival, HGF above median versus below median” value in test [8] (median plasma HGF 334 pg/mL, p=0.005) is recorded as “substantially reduced”.
